Experimental data published in the NIST ThermoML archive (doi:10.1016/j.jct.2006.07.017).
Numbers after ± are expanded uncertainties.

Experiment: xn = mol fraction of the nth substance listed
Conditions: 101 kPa, Liquid

Cc1ccccc1C [1,2-dimethylbenzene] + CN(C)C=O
Conditions	mass density [kg/m3]
293.15 K, x1 = 0.0555	943.56 ± 0.23
293.15 K, x1 = 0.1111	938.71 ± 0.24
293.15 K, x1 = 0.1754	933.3 ± 0.24
293.15 K, x1 = 0.2352	928.47 ± 0.25
293.15 K, x1 = 0.2952	923.8 ± 0.26
293.15 K, x1 = 0.3562	919.23 ± 0.27
293.15 K, x1 = 0.4251	914.29 ± 0.27
293.15 K, x1 = 0.4865	910.06 ± 0.28
293.15 K, x1 = 0.5484	905.95 ± 0.29
293.15 K, x1 = 0.612	901.89 ± 0.29
293.15 K, x1 = 0.6785	897.8 ± 0.3
293.15 K, x1 = 0.7325	894.58 ± 0.3
293.15 K, x1 = 0.7954	890.96 ± 0.31
293.15 K, x1 = 0.8654	887.04 ± 0.32
293.15 K, x1 = 0.9325	883.4 ± 0.32
303.15 K, x1 = 0.0652	933.58 ± 0.24
303.15 K, x1 = 0.1251	928.39 ± 0.25
303.15 K, x1 = 0.1854	923.37 ± 0.26
303.15 K, x1 = 0.2462	918.5 ± 0.27
303.15 K, x1 = 0.3125	913.42 ± 0.27
303.15 K, x1 = 0.3785	908.59 ± 0.28
303.15 K, x1 = 0.4358	904.56 ± 0.29
303.15 K, x1 = 0.4962	900.47 ± 0.29
303.15 K, x1 = 0.5521	896.83 ± 0.3
303.15 K, x1 = 0.6125	893.04 ± 0.31
303.15 K, x1 = 0.6784	889.05 ± 0.31
303.15 K, x1 = 0.7451	885.17 ± 0.32
303.15 K, x1 = 0.8012	882.01 ± 0.32
303.15 K, x1 = 0.8658	878.48 ± 0.33
303.15 K, x1 = 0.9485	874.12 ± 0.33
313.15 K, x1 = 0.0441	926.11 ± 0.26
313.15 K, x1 = 0.1025	920.99 ± 0.26
313.15 K, x1 = 0.1762	914.82 ± 0.27
313.15 K, x1 = 0.2341	910.18 ± 0.28
313.15 K, x1 = 0.2951	905.51 ± 0.29
313.15 K, x1 = 0.3756	899.63 ± 0.3
313.15 K, x1 = 0.4415	895.06 ± 0.3
313.15 K, x1 = 0.5012	891.08 ± 0.31
313.15 K, x1 = 0.5685	886.8 ± 0.32
313.15 K, x1 = 0.6215	883.55 ± 0.32
313.15 K, x1 = 0.6865	879.72 ± 0.33
313.15 K, x1 = 0.7451	876.39 ± 0.33
313.15 K, x1 = 0.8021	873.25 ± 0.34
313.15 K, x1 = 0.8654	869.88 ± 0.34
313.15 K, x1 = 0.9448	865.79 ± 0.35
323.15 K, x1 = 0.0485	916.16 ± 0.27
323.15 K, x1 = 0.1124	910.62 ± 0.28
323.15 K, x1 = 0.1852	904.61 ± 0.29
323.15 K, x1 = 0.2521	899.35 ± 0.3
323.15 K, x1 = 0.3251	893.91 ± 0.3
323.15 K, x1 = 0.3952	888.96 ± 0.31
323.15 K, x1 = 0.4658	884.2 ± 0.32
323.15 K, x1 = 0.5315	879.99 ± 0.33
323.15 K, x1 = 0.5952	876.08 ± 0.33
323.15 K, x1 = 0.6584	872.37 ± 0.34
323.15 K, x1 = 0.7251	868.61 ± 0.34
323.15 K, x1 = 0.7952	864.81 ± 0.35
323.15 K, x1 = 0.8456	862.18 ± 0.35
323.15 K, x1 = 0.9012	859.35 ± 0.36
323.15 K, x1 = 0.9599	856.45 ± 0.36
333.15 K, x1 = 0.0521	906.08 ± 0.29
333.15 K, x1 = 0.1245	899.89 ± 0.3
333.15 K, x1 = 0.1895	894.6 ± 0.3
333.15 K, x1 = 0.2451	890.29 ± 0.31
333.15 K, x1 = 0.3021	886.06 ± 0.32
333.15 K, x1 = 0.3685	881.35 ± 0.32
333.15 K, x1 = 0.4214	877.76 ± 0.33
333.15 K, x1 = 0.4912	873.24 ± 0.34
333.15 K, x1 = 0.5584	869.09 ± 0.34
333.15 K, x1 = 0.6121	865.92 ± 0.35
333.15 K, x1 = 0.6725	862.48 ± 0.35
333.15 K, x1 = 0.7315	859.26 ± 0.36
333.15 K, x1 = 0.7943	855.95 ± 0.36
333.15 K, x1 = 0.8651	852.38 ± 0.37
333.15 K, x1 = 0.9432	848.58 ± 0.37
343.15 K, x1 = 0.0625	895.2 ± 0.3
343.15 K, x1 = 0.1325	889.33 ± 0.31
343.15 K, x1 = 0.1952	884.33 ± 0.32
343.15 K, x1 = 0.2658	878.99 ± 0.33
343.15 K, x1 = 0.3321	874.24 ± 0.34
343.15 K, x1 = 0.3965	869.86 ± 0.34
343.15 K, x1 = 0.4652	865.41 ± 0.35
343.15 K, x1 = 0.5325	861.27 ± 0.35
343.15 K, x1 = 0.5912	857.83 ± 0.36
343.15 K, x1 = 0.6524	854.4 ± 0.37
343.15 K, x1 = 0.7125	851.16 ± 0.37
343.15 K, x1 = 0.7895	847.19 ± 0.38
343.15 K, x1 = 0.8462	844.4 ± 0.38
343.15 K, x1 = 0.9012	841.76 ± 0.38
343.15 K, x1 = 0.9577	839.14 ± 0.39
353.15 K, x1 = 0.0715	884.27 ± 0.32
353.15 K, x1 = 0.1252	879.83 ± 0.33
353.15 K, x1 = 0.1858	875.05 ± 0.33
353.15 K, x1 = 0.2521	870.08 ± 0.34
353.15 K, x1 = 0.3215	865.16 ± 0.35
353.15 K, x1 = 0.3865	860.79 ± 0.36
353.15 K, x1 = 0.4251	858.31 ± 0.36
353.15 K, x1 = 0.4851	854.59 ± 0.37
353.15 K, x1 = 0.5584	850.27 ± 0.37
353.15 K, x1 = 0.6221	846.71 ± 0.38
353.15 K, x1 = 0.6825	843.48 ± 0.38
353.15 K, x1 = 0.7551	839.78 ± 0.39
353.15 K, x1 = 0.8154	836.84 ± 0.39
353.15 K, x1 = 0.8851	833.58 ± 0.4
353.15 K, x1 = 0.9411	831.05 ± 0.4
